Experiments:
Type in all cases: in vivo
[1] = tested on: Solanum nigrum (SOLNI); test: Post-emergence herbicidal glasshouse test on Solanum nigrum; settings: post-emergence; 1000 g/h; evaluated after 13 days
Outline: (§1)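 Pre-emergence treatment came one day after sowing, post-emergence treatment after eight days' growth; both used 1000 g/h in a 0.5% Tween 20 acetone/water vehicle. Percent damage, scored 1–5, was read 13 days later.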

[2] = tested on: Alopecurus myosuroides (ALOMY); test: Pre-emergence herbicidal glasshouse test on Alopecurus myosuroides; settings: pre-emergence; 1000 g/h; evaluated after 13 days
Outline: as §1

[3] = tested on: Alopecurus myosuroides (ALOMY); test: Post-emergence herbicidal glasshouse test on Alopecurus myosuroides; settings: post-emergence; 1000 g/h; evaluated after 13 days
Outline: as §1

[4] = tested on: Setaria faberi (SETFA); test: Post-emergence herbicidal glasshouse test on Setaria faberi; settings: post-emergence; 1000 g/h; evaluated after 13 days
Outline: as §1

[5] = tested on: Amaranthus retoflexus (AMARE); test: Post-emergence herbicidal glasshouse test on Amaranthus retoflexus; settings: post-emergence; 1000 g/h; evaluated after 13 days
Outline: as §1

[6] = tested on: Solanum nigrum (SOLNI); test: Pre-emergence herbicidal glasshouse test on Solanum nigrum; settings: pre-emergence; 1000 g/h; evaluated after 13 days
Outline: as §1

[7] = tested on: Setaria faberi (SETFA); test: Pre-emergence herbicidal glasshouse test on Setaria faberi; settings: pre-emergence; 1000 g/h; evaluated after 13 days
Outline: as §1

[8] = tested on: Echinochloa crus-galli (ECHCG); test: Post-emergence herbicidal glasshouse test on Echinochloa crus-galli; settings: post-emergence; 1000 g/h; evaluated after 13 days
Outline: as §1

[9] = tested on: Echinochloa crus-galli (ECHCG); test: Pre-emergence herbicidal glasshouse test on Echinochloa crus-galli; settings: pre-emergence; 1000 g/h; evaluated after 13 days
Outline: as §1

[10] = tested on: Ipomoea hederacea (IPOHE); test: Post-emergence herbicidal glasshouse test on Ipomoea hederacea; settings: post-emergence; 1000 g/h; evaluated after 13 days
Outline: as §1

[11] = tested on: Amaranthus retoflexus (AMARE); test: Pre-emergence herbicidal glasshouse test on Amaranthus retoflexus; settings: pre-emergence; 1000 g/h; evaluated after 13 days
Outline: as §1

[12] = tested on: Ipomoea hederacea (IPOHE); test: Pre-emergence herbicidal glasshouse test on Ipomoea hederacea; settings: pre-emergence; 1000 g/h; evaluated after 13 days
Outline: as §1

| Structure (SMILES) | POST Application SOLNI herbicidal damage (five point scale) [1] | PRE Application ALOMY herbicidal damage (five point scale) [2] | POST Application ALOMY herbicidal damage (five point scale) [3] | POST Application SETFA herbicidal damage (five point scale) [4] | POST Application AMARE herbicidal damage (five point scale) [5] | PRE Application SOLNI herbicidal damage (five point scale) [6] | PRE Application SETFA herbicidal damage (five point scale) [7] | POST Application ECHCG herbicidal damage (five point scale) [8] | PRE Application ECHCG herbicidal damage (five point scale) [9] | POST Application IPOHE herbicidal damage (five point scale) [10] | PRE Application AMARE herbicidal damage (five point scale) [11] | PRE Application IPOHE herbicidal damage (five point scale) [12] |
| --- | --- | --- | --- | --- | --- | --- | --- | --- | --- | --- | --- | --- |
| Cn1ncc(-c2cccn(CC(F)(F)F)c2=O)c(O)c1=O [Compound 9.005] | 4 (4=60-79% damage) | 1 (1=0-19% damage) | 1 (1=0-19% damage) | 1 (1=0-19% damage) | 2 (2=20-39% damage) | 1 (1=0-19% damage) | 1 (1=0-19% damage) | 1 (1=0-19% damage) | 1 (1=0-19% damage) | 2 (2=20-39% damage) | 1 (1=0-19% damage) | 1 (1=0-19% damage) |
| Cn1ncc(-c2cccn(CC3CC3)c2=O)c(O)c1=O [Compound 9.006] | 3 (3=40-59% damage) | 1 (1=0-19% damage) | 2 (2=20-39% damage) | 2 (2=20-39% damage) | 3 (3=40-59% damage) | 1 (1=0-19% damage) | 1 (1=0-19% damage) | 1 (1=0-19% damage) | 1 (1=0-19% damage) | 2 (2=20-39% damage) | 1 (1=0-19% damage) | 1 (1=0-19% damage) |
| C=C(C)Cn1cccc(-c2cnn(C)c(=O)c2O)c1=O [Compound 9.007] | 4 (4=60-79% damage) | 1 (1=0-19% damage) | 1 (1=0-19% damage) | 2 (2=20-39% damage) | 3 (3=40-59% damage) | 1 (1=0-19% damage) | 1 (1=0-19% damage) | 1 (1=0-19% damage) | 1 (1=0-19% damage) | 2 (2=20-39% damage) | 1 (1=0-19% damage) | 1 (1=0-19% damage) |
| Cn1ncc(-c2cccn(Cc3ccccc3)c2=O)c(O)c1=O [Compound 9.008] | 3 (3=40-59% damage) | 1 (1=0-19% damage) | 1 (1=0-19% damage) | 1 (1=0-19% damage) | 3 (3=40-59% damage) | 2 (2=20-39% damage) | 1 (1=0-19% damage) | 1 (1=0-19% damage) | 4 (4=60-79% damage) | 1 (1=0-19% damage) | 2 (2=20-39% damage) | 1 (1=0-19% damage) |
| COCCn1cccc(-c2cnn(C)c(=O)c2O)c1=O [Compound 9.009] | 5 (5=80-100% damage) | 1 (1=0-19% damage) | 2 (2=20-39% damage) | 3 (3=40-59% damage) | 4 (4=60-79% damage) | 1 (1=0-19% damage) | 1 (1=0-19% damage) | 3 (3=40-59% damage) | 1 (1=0-19% damage) | 3 (3=40-59% damage) | 1 (1=0-19% damage) | 1 (1=0-19% damage) |
| Cn1ncc(-c2ccc(C(F)(F)F)n(C)c2=O)c(O)c1=O [Compound 9.010] | 5 (5=80-100% damage) | 1 (1=0-19% damage) | 2 (2=20-39% damage) | 2 (2=20-39% damage) | 5 (5=80-100% damage) | 1 (1=0-19% damage) | 1 (1=0-19% damage) | 4 (4=60-79% damage) | 5 (5=80-100% damage) | 4 (4=60-79% damage) | 5 (5=80-100% damage) | 1 (1=0-19% damage) |
| C=CCn1c(C(F)(F)F)ccc(-c2cnn(C)c(=O)c2O)c1=O [Compound 9.011] | 5 (5=80-100% damage) | 2 (2=20-39% damage) | 4 (4=60-79% damage) | 5 (5=80-100% damage) | 5 (5=80-100% damage) | 1 (1=0-19% damage) | 3 (3=40-59% damage) | 5 (5=80-100% damage) | 5 (5=80-100% damage) | 4 (4=60-79% damage) | 4 (4=60-79% damage) | 1 (1=0-19% damage) |
| COc1ccc(-n2cccc(-c3cnn(C)c(=O)c3O)c2=O)cc1 [Compound 9.016] | 5 (5=80-100% damage) | 2 (2=20-39% damage) | 3 (3=40-59% damage) | 3 (3=40-59% damage) | 5 (5=80-100% damage) | 1 (1=0-19% damage) | 1 (1=0-19% damage) | 4 (4=60-79% damage) | 1 (1=0-19% damage) | 2 (2=20-39% damage) | 1 (1=0-19% damage) | 1 (1=0-19% damage) |
